Assay [1] deals with Acinetobacter baumannii strain 2208 (ATCC 19606). Put plainly: bacterial proliferation assay, A. baumannii. The class given is cell-based. As to conditions: ATCC19606, read-out: Bacterial Proliferation EC50 A. baumannii. On the procedure:
(§1) All compounds were evaluated for inhibiting the proliferation of E. coli and each of the ESKAPE bacteria. Results presented represent the averages of EC50 values obtained from at least four replicates. Evaluating compounds for inhibition of bacterial cell proliferation.
(§2) Growth Media: E. coli were grown with LB medium and all ESKAPE bacteria were grown in Brain Heart Infusion (BHI) medium (Becton, Dickinson and Company), with all liquid cultures supplemented with 25 mg/L Ca^2+ and 12.5 mg/L Mg^2+ to mimic physiological free concentrations of these cations. A 10 mg/mL Ca^2+ stock solution was prepared by dissolving 1.84 g of CaCl2.2H2O in 50 mL of deionized water, and a 10 mg/mL Mg^2+ stock solution was prepared by dissolving 4.18 g of MgCl2.6H2O in 50 mL deionized water—filter sterilized using 0.2 μm cellulose-acetate filters. 2.5 mL of the sterile 10 mg/mL Ca^2+ stock and 1.25 mL of the sterile 10 mg/mL Mg^2+ stock solutions were added per 1 L of autoclaved LB or BHI media to obtain 25 mg/L Ca^2+ and 12.5 mg/L Mg^2+ ions, respectively.
(§3) General Assay Protocol: Stock bacterial cultures were streaked onto LB or BHI agar plates and grown overnight at 37° C. Fresh aliquots of cation supplemented media were inoculated with single bacterial colonies and the cultures were grown overnight at 37° C. with shaking (240 rpm). The following morning, cultures were diluted 10-fold into fresh media and grown at 37° C. until bacteria had reached mid-log phase growth (OD600˜0.4-0.6). The cultures were then diluted into fresh media to achieve final OD600 readings of 0.017. Aliquots of these diluted cultures (30 μL) were added to clear, flat-bottom 384-well polystyrene plates that were previously stamped with 0.5 μL of test compounds in 20 μL of media (yielding initial OD600=0.01 bacterial cultures). All compounds were tested in dose-response with concentration ranges during the proliferation assays from 100 μM to 46 nM (3-fold dilution series). A second set of baseline control plates were prepared analogously, but without any bacteria added, to correct for possible compound absorbance and/or precipitation. […] Plates were then read at 600 nm using a Molecular Devices SpectraMax Plus384 microplate reader. […] Results presented represent the averages of EC50 values obtained from at least four replicates.
(§4) Evaluating analogs for inhibiting the growth of E. coli and the ESKAPE bacteria. Analogs were initially tested for antibacterial efficacy against representative strains of antibiotic-sensitive E. coli and the ESKAPE bacteria. To determine compound efficacy, bacterial proliferation assays were carried out in liquid media culture supplemented with physiological concentrations of free calcium and magnesium cations. For these assays, bacterial cultures (OD600=0.01) were exposed to test compounds in 8-point, 3-fold dilution series (100 μM to 46 nM concentration range), in 384-well plates. After addition of compounds to cultures, the plates were sealed with Breathe-Easy gas permeable membranes and allowed to grow to mid-log phase (OD600˜0.4-0.6), whereupon final OD600 readings were taken to assess for bacterial growth and inhibition.

The test system of assay [2] is Pseudomonas aeruginosa strain NCTC 10332 (ATCC #10145). The experiment in a line: bacterial proliferation assay, P. aeruginosa. It is filed as cell-based. As to conditions: read-out: Bacterial Proliferation EC50 P. aeruginosa. On the procedure: as §1, §2, §3, §4
The subject of assay [3] is Enterococcus faecium strain NCTC 7171 (ATCC #19434). Put plainly: bacterial proliferation assay, E. faecium. The class given is cell-based. As to conditions: read-out: Bacterial Proliferation EC50 E. faecium. The procedure:
as §1, §2, §3, §4

The test system of assay [4] is Staphylococcus aureus strain Seattle 1945 (ATCC #25923). The experiment in a line: bacterial proliferation assay, S. aureus. The class given is cell-based. On the procedure:
as §1, §2, §3, §4

The next assay concerns the target T1, E. coli GroEL/ES (Escherichia coli, UniProt P0A6F5).
T1 construct: made in house; host or cells: GroEL in NEB 5-alpha E. coli; GroES in E. coli BL21 (DE3)
Put plainly: GroEL/ES-mediated dRho refolding assay. The class given is biochemical. The procedure:
Evaluating compounds for inhibition in the GroEL/ES-mediated dRho refolding assay. Reagent preparation: For this assay, five primary reagent stocks were prepared: 1) GroEL/ES-dRho binary complex stock; 2) ATP initiation stock; 3) thiocyanate enzymatic assay stock; 4) formaldehyde quench stock; 5) ferric nitrate reporter stock. Denatured rhodanese (dRho) was prepared by 3-fold dilution of rhodanese (Roche product #R^1756, diluted to 10 mg/mL with H2O) with denaturant buffer (12 M Urea, 50 mM Tris-HCl, pH 7.4, and 10 mM DTT). Rhodanese was completely denatured by incubating at room temperature for >45 min. The binary complex solution was prepared by slowly adding the dRho stock to a stirring stock of concentrated GroEL in modified folding buffer (50 mM Tris-HCl, pH 7.4, 50 mM KCl, 10 mM MgCl2, 5 mM Na2S2O3, and 1 mM DTT). The solution was centrifuged at 16,000×g for 5 minutes, and the supernatant was collected and added to a solution of GroES in modified folding buffer to give final protein concentrations of 100 nM GroEL, 120 nM GroES, and 80 nM dRho. The binary complex stock was prepared immediately prior to use. For the ATP initiation stock, ATP solid was diluted into modified folding buffer to a final concentration of 2.0 mM. The thiocyanate enzymatic assay stock was prepared to contain 70 mM KH2PO4, 80 mM KCN, and 80 mM Na2S2O3 in water. The formaldehyde quench solution contained 30% formaldehyde in water.
Assay Protocol: First, 10 μL aliquots of the GroEL/ES-dRho complex stock were dispensed into clear, flat-bottom 384-well polystyrene plates. […] After incubating for 40 minutes at 37° C. for the refolding cycle, 30 μL of the thiocyanate enzymatic assay stock was added and incubated for 60 min at room temperature for the refolded rhodanese enzymatic reporter reaction. The reporter reaction was quenched by adding 10 μL of the formaldehyde quench stock, and then 40 μL of the ferric nitrate reporter stock was added to quantify the amount of thiocyanate produced during the enzymatic reporter reaction, which is proportional to the amount of dRho refolded by GroEL/ES. After incubating at room temperature for 15 min, the absorbance by Fe(SCN)3 was measured at 460 nm using a Molecular Devices SpectraMax Plus384 microplate reader. A second set of baseline control plates were prepared analogously, but without GroEL/ES-dRho protein binary solution, to correct for possible interference from compound absorbance or turbidity. […] Results presented represent the averages of IC50 values obtained from at least four replicates.
Evaluating compounds for inhibition in the GroEL/ES-mediated dRho refolding assay. All compounds were evaluated for inhibiting E. coli GroEL/ES-mediated refolding of the denatured Rho reporter enzyme as per our previously reported procedure. Results presented represent the averages of IC50 values obtained from at least four replicates.

Where [5] appears, read: Staphylococcus aureus, ATCC25923; read-out: Bacterial Proliferation EC50 S. aureus.
Where [6] appears, read: read-out: GroEL/ES-dRho Refolding IC50.

SMILES strings stand for the structures. Read-outs that look alike come from different tables or passages of the source.

T1 sequence (P0A6F5 2-548): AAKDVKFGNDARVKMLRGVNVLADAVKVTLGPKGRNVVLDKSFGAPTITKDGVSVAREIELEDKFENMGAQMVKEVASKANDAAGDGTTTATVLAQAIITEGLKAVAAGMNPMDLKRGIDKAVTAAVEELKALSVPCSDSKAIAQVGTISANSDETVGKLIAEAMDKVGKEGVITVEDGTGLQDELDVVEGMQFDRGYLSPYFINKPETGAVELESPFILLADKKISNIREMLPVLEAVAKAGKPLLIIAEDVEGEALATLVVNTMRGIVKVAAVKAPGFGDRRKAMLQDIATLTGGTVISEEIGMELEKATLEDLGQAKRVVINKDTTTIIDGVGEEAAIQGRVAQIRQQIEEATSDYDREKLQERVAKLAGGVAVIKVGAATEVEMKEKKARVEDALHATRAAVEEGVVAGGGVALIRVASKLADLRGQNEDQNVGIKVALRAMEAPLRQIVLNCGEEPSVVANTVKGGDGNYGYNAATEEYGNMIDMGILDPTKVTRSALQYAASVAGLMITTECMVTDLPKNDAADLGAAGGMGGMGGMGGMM

For `O=C(N/N=C/c1ccc(O)c2ncccc12)c1ccc(NS(=O)(=O)c2cccs2)cc1` [Compound 13, N-(4-(2-((8-hydroxyquinolin-5-yl)methylene)hydrazine-1-carbonyl)phenyl)thiophene-2-sulfonamide], the EC50 in assay [1], in assay [2], in assay [3] and in assay [4] (setting [5]) was more than 100 µM throughout. Also, on E. coli GroEL/ES, the IC50 amounted to 0.81 µM.
On to `O=C(N/N=C/c1cccc2ccccc12)c1ccccc1` [Compound 34, N′-(naphthalen-1-ylmethylene)benzohydrazide], for which the EC50 in assay [1], in assay [2], in assay [3] and in assay [4] (setting [5]) was more than 100 µM each time. The IC50 on E. coli GroEL/ES came out at 209 µM.
Take `CCOc1ccc(S(=O)(=O)Nc2ccc(C(=O)N/N=C/c3ccc(O)c4ncccc34)cc2)cc1` [Compound 15, 4-ethoxy-N-(4-(2-((8-hydroxyquinolin-5-yl)methylene)hydrazine-1-carbonyl)phenyl)benzenesulfonamide]: the EC50 in assay [1], in assay [2], in assay [3] and in assay [4] (setting [5]) was more than 100 µM throughout. At E. coli GroEL/ES, this compound gave an IC50 of 1.4 µM.
As to `COc1ccc(C(=O)N/N=C/c2ccc(O)cc2)cc1` [Compound 35, N′-(4-hydroxybenzylidene)-4-methoxybenzohydrazide], the EC50 in assay [1], in assay [2], in assay [3] and in assay [4] (setting [5]) was more than 100 µM in each case. The same compound gave an IC50 at E. coli GroEL/ES of more than 250 µM.
Regarding `O=C(N/N=C/c1ccc(O)c2ncccc12)c1cccs1` [Compound 3, N′-((8-hydroxyquinolin-5-yl)methylene)thiophene-2-carbohydrazide], the EC50 in assay [1] is 74 µM; in assay [2], more than 100 µM; in assay [3], more than 100 µM; in assay [4] (setting [5]), 63 µM. Further, the IC50 on E. coli GroEL/ES worked out at 38 µM.
Turning to `O=C(N/N=C/c1ccc(O)c2ncccc12)c1ccncc1` [Compound 6, N′-((8-hydroxyquinolin-5-yl)methylene)isonicotinohydrazide], the EC50 in assay [1], in assay [2], in assay [3] and in assay [4] (setting [5]) was more than 100 µM each time. Also, the IC50 at E. coli GroEL/ES is more than 250 µM.
With `O=Cc1ccc(O)c2ncccc12` [Compound 40, reference compound], the EC50 was 11 µM in assay [1], more than 100 µM in assay [2], 7.3 µM in assay [3] and 19 µM in assay [4] (setting [5]). Also, the IC50 at E. coli GroEL/ES (setting [6]) was 30 µM.
For `CCOc1ccc(S(=O)(=O)Nc2ccc(C(=O)N/N=C/c3ccc([N+](=O)[O-])o3)cc2)cc1` [Compound 28, 4-ethoxy-N-(4-(2-((5-nitrofuran-2-yl)methylene)hydrazine-1-carbonyl)phenyl)benzenesulfonamide], the EC50 in assay [1], in assay [2], in assay [3] and in assay [4] (setting [5]) was more than 100 µM each time. Besides, the IC50 against E. coli GroEL/ES is 66 µM.
In the case of `COc1ccc(C(=O)N/N=C/c2ccco2)cc1` [Compound 39, N′-(furan-2-ylmethylene)-4-methoxybenzohydrazide], the EC50 in assay [1], in assay [2], in assay [3] and in assay [4] (setting [5]) was more than 100 µM each time. Further, on E. coli GroEL/ES, the IC50 was more than 250 µM.
With `O=C(N/N=C/c1ccc(O)c2ncccc12)c1ccc(NS(=O)(=O)c2ccc(Br)cc2)cc1` [Compound 14, 4-bromo-N-(4-(2-((8-hydroxyquinolin-5-yl)methylene)hydrazine-1-carbonyl)phenyl)benzenesulfonamide], the EC50 in assay [1] was 84 µM; in assay [2] it was more than 100 µM; in assay [3] it was more than 100 µM; in assay [4] (Staphylococcus aureus, ATCC25923, read-out: Bacterial Proliferation EC50 S. aureus), more than 100 µM. In addition, the IC50 at E. coli GroEL/ES worked out at 1.8 µM.
For the compound `O=C(N/N=C/c1ccc([N+](=O)[O-])o1)c1ccc(Cl)s1` [Compound 17, 5-chloro-N′-((5-nitrofuran-2-yl)methylene)thiophene-2-carbohydrazide], the EC50 in assay [1] is 72 µM; in assay [2] it was more than 100 µM; in assay [3], 12 µM; in assay [4] (setting [5]), 3 µM. Also, the IC50 on E. coli GroEL/ES (setting [6]) came to 60 µM.
Regarding `O=C(N/N=C/c1ccccc1)c1ccccc1` [Compound 38, N′-benzylidenebenzohydrazide], the EC50 in assay [1], in assay [2], in assay [3] and in assay [4] (setting [5]) was more than 100 µM in each case. On E. coli GroEL/ES, this compound registered an IC50 of more than 250 µM.
As for `O=C(N/N=C/c1ccc([N+](=O)[O-])o1)c1cccc2ccccc12` [Compound 22, N′-((5-nitrofuran-2-yl)methylene)-1-naphthohydrazide], the EC50 in assay [1] is more than 100 µM; in assay [2], more than 100 µM; in assay [3], 16 µM; in assay [4] (setting [5]) it was 6 µM. Further, the IC50 against E. coli GroEL/ES turned out to be 73 µM.
For `O=C(N/N=C/c1ccc([N+](=O)[O-])o1)c1cccs1` [Compound 16, N′-((5-nitrofuran-2-yl)methylene)thiophene-2-carbohydrazide], the EC50 in assay [1] is 82 µM; in assay [2] it was more than 100 µM; in assay [3] it was 24 µM; in assay [4] (setting [5]), 7.1 µM. Further, at E. coli GroEL/ES (setting [6]), the IC50 is 222 µM.
In the case of `O=C1CN(/N=C/c2ccc(O)c3ncccc23)C(=O)N1` [Compound 2, 1-(((8-hydroxyquinolin-5-yl)methylene)amino)imidazolidine-2,4-dione], the EC50 in assay [1] is more than 100 µM; in assay [2], more than 100 µM; in assay [3], more than 100 µM; in assay [4] (setting [5]) it was 37 µM. This compound also had an IC50 against E. coli GroEL/ES of 86.4 µM.
